# Non-standard residues stand in square brackets, D forms with d. No end group written: not given here. pY = N[C@@H](Cc1ccc(OP(=O)(O)O)cc1)C(=O)O
# Tests used:
# H-460 cells = test: Calcium release in live cells (Fura-2 imaging); type: cell-based, human; conditions: 20 μM cytochalasin D, cells with LCP nanoparticles
# Experimental: Two μl of 2 mM Fura-2 AM and 2 μl of 20% Pluronic-127 were mixed for 5 min and added to 1 ml phenol red free DMEM cell culture medium before use. About 5×10^4 H-460 cells were incubated in a Lab-Tek 8-well glass chamber slide system (Fisher, Pittsburgh, Pa.) for 24 h. Two hundred μl of a 2 μM Fura-2 AM solution was added to the cell culture chamber, followed by a 50 min incubation. After washing two times with PBS, the cells were incubated in phenol red-free DMEM cell culture medium and imaged with a Nikon TE2000U microscope and OrcaER camera. Emission was monitored at 510 nm with an alternating excitation wavelength of 340 nm and 380 nm from a Xenon light source. After adding 50 μl of LCP nanoparticles, fluorescence image was obtained by setting the excitation wavelength at 340 nm for green color and 380 nm for red color. The ratio of 340 nm/380 nm was proportional to the intracellular free Ca^2+ concentration (Hirst et al. (1999) Methods Mol Biol 114:31-39). All experiments were performed at room temperature.
# To study the inhibition of endocytosis, 20 mM cytochalasin D was prepared in DMSO solution and freshly diluted 1,000 times by phenol red-free DMEM medium for use. After incubating with Fura-2 AM for 60 min and 20 μM cytochalasin D for 5 min, cells were imaged as described in the presence of LCP nanoparticles.
# [1] = Trapping / encapsulation efficiency; type: physicochemical; conditions: cargo encapsulated in LCP-II
# Experimental: To […] calculate the trapping efficiency of siRNA in the LCP nanoparticles, the anti-luciferase siRNA was replaced with a carboxyfluoroscein (FAM)-labeled siRNA having the same sequence (Dharmacon Inc, Lafayette, Colo.). The FAM-labeled siRNA LCP nano-particles were dissolved in lysis buffer (2 mM EDTA and 0.05% Trixton-100 in pH 7.8 Tris buffer) for quantitative analysis of the siRNA encapsulation efficiency. Standard siRNA solutions were prepared by diluting the FAM-labeled siRNA in the same lysis buffer. Then, 100 μl of the standard siRNA solution or the LCP solution was added to a 96-well plate and the fluorescence intensity was measured at 525 nm with a plate reader (Plate Chameleon Multilabel Detection Platform, Bioscan Inc., Washington D.C.). The amount of entrapped siRNA in the LCP nanoparticles was calculated based on the standard calibration curve.
trapping efficiency in LCP-II nanoparticles [1],Molecule,effect on LCP-induced color change (endocytosis inhibition) (H-460 cells)
,C=C1[C@@H](C)[C@H]2[C@H](Cc3ccccc3)NC(=O)[C@]23[C@H](OC(C)=O)/C=C/[C@@](C)(O)C(=O)[C@@H](C)C/C=C/[C@H]3[C@@H]1O [cytochalasin D],significantly reduced the color change
~88%,"Nc1ccn(C2OC(COP(=O)(O)O)[C@H](O)C2(F)F)c(=O)n1 (some centres unmarked) [gemcitabine monophosphate, Gemcitabine monophosphate]",
about 94%,Nc1ccn([C@@H]2O[C@H](COP(=O)(O)O)[C@@H](O)[C@@H]2O)c(=O)n1 [AraC monophosphate],
about 40%,"O=C([O-])c1ccccc1-c1c2ccc(=O)cc-2oc2cc([O-])ccc12.[Na+].[Na+] [sodium fluorescein, reference compound]",

Molecule,trapping efficiency in LCP-II nanoparticles [1],effect on LCP-induced color change (endocytosis inhibition) (H-460 cells)
EEEEpYFELV (EEEE[pY]FELV) [peptide wherein the tyrosine (Y) is phosphorylated],~82%,

# Reference: patent US10624852B2, “Liposomes comprising a calcium phosphate-containing precipitate” (The University of North Carolina at Chapel Hill, priority 2009, dated 2020)
